The values below come from patent US8563490B2, “Mild to the skin, foaming detergent composition” (Conopco, Inc., priority 2010, dated 2013).

The target of the data set is a-Chymotrypsin from bovine pancreas (Bos taurus, UniProt P00766).

Protocol: The basis of the mildness assay is the enzymatic activity of Chymotrypsin on a chromogenic substrate. Surfactant mildness is assessed by the effect of a surfactant on the enzyme protein. A harsh surfactant will degrade Chymotrypsin, leading to a lower optical density reading in the reaction well. The enzyme used for this assay is a-Chymotrypsin from bovine pancreas. The enzyme used is the chromogenic substrate for Chymotrypsin, N-Succinyl-Ala-Ala-Pro-Phe-pNA.
The basis of the surfactant protein mildness detecting assay used was the enzymatic activity of Chymotrypsin on a chromogenic substrate. A harsh surfactant degrades Chymotrypsin, leading to a lower absorbance reading. Any reading greater than 0.8% is taken to be a pass for mildness.
For the skin protein protection assay, 70 μl stock buffer solution (33 mM of Tris pH8.0, 180 mM of NaCl, 1 mM of CaCl2), 10 μl substrate stock solution (Ala-Ala-Pro-Phe-pNA; 4 mg/ml) and 20 μl enzyme (α-Chyotrypsin; 10 ng per well) were added to the wells of a 96-well plate together with 100 ul of the formulations pre-diluted 1:10 in water. Reaction mixes were incubated for 45 minutes before colorimetric measurements were taken at 405 nm by a SpectraMax plate reader.

Regarding “Saponin extract from Zizyphus joazero [hh]”, the “Mildness Lsmean (least squares mean of Absorbance values)” value is on record as 0.36.
